Assay [1] relates to Acinetobacter baumannii. Briefly: DAPI/PI staining, laser scanning confocal microscopy (membrane integrity). In kind it is cell-based. The note with it: A. baumannii 10^8 CFU/mL, 37 °C, 1-2 h, DAPI and PI staining. From the text: Many naturally occurring antimicrobial peptides (AMPs) are cationic. Cationic AMPs (CAMPs) exert bactericidal activity by mechanisms featuring cell membrane disruption. Cyclotides are likely to kill germ by disrupting their membranes. Laser scanning confocal microscopy can be used to study the ability of cyclotides to destroy bacterial membrane. 4′, 6-diaminyl-2-phenylindole (DAPI) is a blue fluorescent dye that can penetrate membranes and stain both living and dead strains, while propyl iodide (PI) stains only strains with damaged membranes, glowing red[46],[47]. In this study, the bracelet cyclotide family members viba 11 and vija 10 interacted with A. baumannii and B. subtilis in their logarithmic phase at 37 °C for 1–2 h. After the addition of DAPI and PI fluorescent dyes, the samples were incubated in a dark room at room temperature for 15 min for staining. The stained samples were then centrifuged to concentrate, resuspended, and applied to a slide for observation using a confocal laser scanning microscope (FLUOVIEW FV3000, Olympus). […] With increasing concentration, the blue and red fluorescence gradually overlapped. […] However, the magnification is not sufficient to detect further details of membrane disruption. Therefore, further exploration can be conducted using methods such as scanning electron microscopy (SEM) to study the antibacterial mechanism in depth.
Figure 5 Study on the antimicrobial mechanism of cyclotides. (A) Incubation of Acinetobacter baumannii with sterile water, 1 MIC and 4 MIC of viba 11. (B) Incubation of Bacillus subtilis with sterile water, 1 MIC and 4 MIC of vija 10. All samples were stained with DAPI and PI. The negative control group PI is not stained and the membrane is intact, while the membrane treated with cyclotides was stained and the membrane are destroyed. Scale bar: 20 μm. Magnification: 600×.
Take 50 μL of A. baumannii and B. subtilis (10^8 CFU/mL), and add 50 μL of sterile water, different concentrations of cyclotides viba 11 and vija 10 to achieve final concentrations of 1 MIC and 4 MIC respectively. Incubate at 37 °C for 1–2 h. Subsequently, add 4,6-diamino-2-phenylindole (DAPI) and propidium iodide (PI) dyes at 20 μg/mL each, and incubate in the dark for 15 min. Centrifuge at 5000 rpm for 3 min to concentrate, discard the majority of the supernatant, and resuspend the bacteria in the remaining small volume of liquid. Mix well and take 10 μL of the stained sample onto a glass slide, gently place a cover slip on top with forceps, avoiding the formation of bubbles during the pressing process. After sealing the cover slip, check with a laser confocal microscope, and the observation was conducted using an objective lens with the maximum magnification of 60 × . […]

The subject of assay [2] is Bacillus subtilis (CMCC(B)63501). Briefly: microbe, parasite or virus in culture. To be noted: 10^6 CFU/ml, 96-well plate, overnight 37 °C, visual clarity, performed at least three times. From the text:
(§1) Viba 11, originally discovered in Viola baoshanensis[39] and found in other plants such as Viola tricolor[40], Viola betonicifolia, and Viola philippica, lacks biological activity studies. […] All purified cyclotides underwent antibacterial testing against Gram-positive bacterium Staphylococcus aureus (CMCC(B)26003-2-10) and Bacillus subtilis (CMCC(B)63501), Gram-negative bacteria, including Acinetobacter baumannii (ATCC19606), Escherichia coli (CMCC(B)44102-2-6), and Salmonella paratyphi (CMCC(B)50094-2-9).
(§2) Bacterial fluids are cultured overnight at 37 °C. The next day, the bacterial liquids are diluted to a concentration of 10^6 CFU/ml. Prepare different concentrations of cyclotide drugs and kanamycin sulfate in advance, and sequentially add the drugs and bacterial liquid to the 96-well plate. Negative controls consisted of sterile water and bacterial liquid. The plate is cultured overnight at 37 °C and observe whether the solution remains clear to see the growth of the bacterial suspension. Each test was performed three times at least.

Assay [3] has as its system Acinetobacter baumannii (ATCC19606). Kind of assay: microbe, parasite or virus in culture. The note with it: Acinetobacter baumannii ATCC19606; 10^6 CFU/ml, 96-well plate, overnight 37 °C, visual clarity; performed at least three times.
From the text: as §1, §2

For assay [4], the system named is Escherichia coli (CMCC(B)44102-2-6). Briefly: microbe, parasite or virus in culture. The note with it: 10^6 CFU/ml, 96-well plate, overnight 37 °C, visual clarity, performed at least three times.
From the text: as §1, §2

Assay [5] relates to Staphylococcus aureus (CMCC(B)26003-2-10). Briefly: MIC, broth dilution in 96-well plate. In kind it is cell-based. The note with it: 10^6 CFU/ml, overnight 37 °C, visual clarity, performed at least three times.
From the text: (§3) Cycloviolacin O2, known for its antimicrobial, hemolytic, and insecticidal activities, has been more extensively investigated[4],[20],[36]–[38]. Viba 11, originally discovered in Viola baoshanensis[39] and found in other plants such as Viola tricolor[40], Viola betonicifolia, and Viola philippica, lacks biological activity studies. These two cyclotides and vija 10 are high in content and easy to purify, and cycloviolacin O2 can also be used as a positive control to conduct activity study. In addition, few vija12 and 31 were extracted for antibacterial experiments. All purified cyclotides underwent antibacterial testing against Gram-positive bacterium Staphylococcus aureus (CMCC(B)26003-2-10) and Bacillus subtilis (CMCC(B)63501), Gram-negative bacteria, including Acinetobacter baumannii (ATCC19606), Escherichia coli (CMCC(B)44102-2-6), and Salmonella paratyphi (CMCC(B)50094-2-9). […] In addition, the MICs of viba 11, cycloviolacin O2 and vija 10 against B. subtilis were respectively 5.4 μM, 2.1 μM and 14.3 μM (Table 1). […] Therefore, it is hypothesized that the lower antimicrobial activity of vija 10 may be attributed to the presence of only one Lys residue in loop 5.
as §2

In assay [6] the test system is Salmonella paratyphi (CMCC(B)50094-2-9). Briefly: MIC, broth dilution in 96-well plate. In kind it is cell-based. To be noted: 10^6 CFU/ml, overnight 37 °C, visual clarity, performed at least three times.
From the text: as §3, §2
In general terms: Dilution methods test growth across graded concentrations, often in twofold steps.

Assay [7] deals with A549 (human non-small cell lung cancer cells). Kind of assay: MTT cytotoxicity assay. In kind it is cell-based. The note with it: 48 h incubation, mean ± SD of at least three repeats. On the procedure: (§4) Five types of cells, namely A549 (human non-small cell lung cancer cells), T24 (human bladder cancer cells), 4T1 (mouse breast cancer cells), 7402 (human hepatocellular carcinoma cells), and THLE-3 (human hepatocytes cells), are selected for evaluating the cytotoxicity of viba 11, cycloviolacin O2, and vija 10 using the MTT (3-(4,5-dimethylthiazol-2-yl)-2,5-diphenyltetrazolium bromide) reagent.
(§5) To determine cell toxicity using MTT assay, cells are seeded in a 96-well plate and cultured for 24 h. After that, different concentrations of cyclotides are added to the cells and incubated for 48 h. MTT is then added to react with the cells, and after 4 h, the reaction is terminated by discarding the supernatant and adding dimethyl sulfoxide for resuspension. The absorbance at 570 nm is measured after 10 min of shaking at room temperature. Each test was performed three times at least. The data were analyzed using GraphPad Prism 8. During this process, the drug concentrations were transformed into logarithmic form with a base of 10 and plotted on the x-axis. Cell viability (%) = [A (cyclotides) − A (blank)]/[A (control) − A (blank)] × 100, which was represented on the y-axis. Using this method, we determined the IC50 value for each experiment, with each experiment repeated at least three times and the mean value calculated. The error was represented by the standard deviation of the IC50 obtained from three repetitions.
Background: Tetrazolium assays rely on reduction of a dye to a coloured formazan, in cell work by metabolically active cells.

For assay [8], the system named is 4T1 (mouse breast cancer cells). Kind of assay: MTT cytotoxicity assay. The assay is classed as cell-based. To be noted: 4T1 cells, 48 h incubation, mean ± SD of at least three repeats. On the procedure: as §4, §5
The subject of assay [9] is 7402 (human hepatocellular carcinoma cells). Briefly: MTT cytotoxicity assay. To be noted: 7402 cells, 48 h incubation, mean ± SD of at least three repeats. The assay is classed as cell-based. On the procedure:
as §4, §5

Assay [10] relates to THLE-3 (human hepatocytes cells). Briefly: MTT cytotoxicity assay. The note with it: THLE-3 cells, 48 h incubation, mean ± SD of at least three repeats. In kind it is cell-based. On the procedure:
as §4, §5

For assay [11], the system named is T24 (human bladder cancer cells). Kind of assay: MTT cytotoxicity assay. The assay is classed as cell-based. To be noted: 48 h incubation, mean ± SD of at least three repeats. On the procedure: as §4, §5

Values after ≈ are worked out from the molar mass of the structure shown. Residues, ends and D or L forms follow the SMILES beside them.

One may read the IC50 as the concentration that inhibits the measured activity by half. Low readings indicate inhibition by little substance, high ones a need for much substance. For `CC[C@H](C)[C@@H]1NC(=O)[C@H](C)NC(=O)CNC(=O)[C@H](CO)NC(=O)[C@H]([C@@H](C)CC)NC(=O)[C@@H]2CSSC[C@@H]3NC(=O)[C@H](C(C)C)NC(=O)[C@H](CCCCN)NC(=O)[C@H](CO)NC(=O)[C@H](CCCCN)NC(=O)[C@@H]4CSSC[C@H](NC(=O)[C@H](CO)NC(=O)[C@H](CCC(=O)O)NC(=O)CNC(=O)[C@H](CSSC[C@H](NC(=O)CNC1=O)C(=O)N[C@@H](CO)C(=O)N4)NC(=O)[C@@H]1CCCN1C(=O)[C@H]([C@@H](C)CC)NC(=O)CNC(=O)[C@H](CC(N)=O)NC(=O)[C@H](CCCNC(=N)N)NC(=O)[C@H](Cc1ccc(O)cc1)NC3=O)C(=O)N[C@@H](C(C)C)C(=O)N[C@@H](Cc1c[nH]c3ccccc13)C(=O)N[C@@H]([C@@H](C)CC)C(=O)N1CCC[C@H]1C(=O)N2` [viba 11] (HELM PEPTIDE1{A.I.G.C.S.C.K.S.K.V.C.Y.R.N.G.I.P.C.G.E.S.C.V.W.I.P.C.I.S.G}$PEPTIDE1,PEPTIDE1,4:R3-18:R3|PEPTIDE1,PEPTIDE1,6:R3-22:R3|PEPTIDE1,PEPTIDE1,11:R3-27:R3|PEPTIDE1,PEPTIDE1,1:R1-30:R2$$$V2.0), the “membrane integrity (PI red fluorescence)” value in assay [1] (1 MIC) is on record as “caused damage to the membrane integrity”; in assay [1] (4 MIC), “majority of the cell membranes were ruptured”. Further, the MIC in assay [2] was 5.4 µM (≈ 16.8 µg/mL); in [3] it was 10.8 µM (≈ 33.6 µg/mL); in [4], more than 21.6 µM; in [5], more than 21.6 µM; in assay [6] it was more than 21.6 µM. For the same compound, the IC50 in [7] was found to be 195 ± 90 nM; in assay [8] it was 285 ± 10 nM; in assay [9], 1700 ± 50 nM; in assay [10], 1609 ± 10 nM; in assay [11] it was 724 ± 170 nM.

For the origin of these results see PMC11056381, “Characterization and evaluation of cytotoxic and antimicrobial activities of cyclotides from Viola japonica” (Scientific Reports, 2024).
